Where a SMILES comes first, the peptide text is derived from it. Bridges are numbered along the chain shown (N, C = ends). [ ]: non-standard residue; d: D form. Phe(4-COOH) = N[C@@H](Cc1ccc(C(=O)O)cc1)C(=O)O; R8 = C=CCCCCCC[C@@](C)(N)C(=O)O; Cba = N[C@@H](CC1CCC1)C(=O)O; S5 = C=CCCC[C@](C)(N)C(=O)O; Nle = CCCC[C@H](N)C(=O)O
Assays:
[1] = Circular dichroism (CD) analysis of alpha-helicity; assay type: physicochemical; settings: 222 nm; for Molar Ellipticity 50% TFE (222 in 50% TFE): CD buffer with 50% TFE; for Molar Ellipticity 50% TFE (222 in 50% TFE) / Molar Ellipticity Benign (222 in 0% TFE): 0.05 mg/ml, 4° C.; for Molar Ellipticity Benign (222 in 0% TFE): benign CD buffer (20 mM phosphoric acid, pH 2); for Molar Ellipticity TFE − Molar Ellipticity Benign: difference 50% TFE minus benign buffer
Protocol: A Peltier temperature controller was used to maintain temperature control of the optical cell. Results are expressed as mean molar ellipticity [θ] […] Peptide concentrations were determined by amino acid analysis. Stock solutions of peptides were prepared in benign CD buffer (20 mM phosphoric acid, pH 2). The stocks were used to prepare peptide solutions of 0.05 mg/ml in either benign CD buffer or CD buffer with 50% trifluoroethanol (TFE) for analyses in a 10 mm pathlength cell. […] The average of six scans was reported.

[2] = tested on: MCF-7 breast cancer xenograft; assay: MCF-7 breast cancer xenograft study; assay type: in vivo, female nude (Crl:NU-Foxn1nu) mice; settings: for mice died during treatment: 10 mice per group
Protocol: A negative control stapled peptide. […] Slow release 90 day 0.72 mg 17β-estradiol pellets (Innovative Research, Sarasota, Fla.) were implanted subcutaneously (sc) on the nape of the neck one day prior to tumor cell implantation (Day −1). On Day 0, MCF-7 tumor cells were implanted sc in the flank of female nude (Crl:NU-Foxn1nu) mice. On Day 18, the resultant sc tumors were measured using calipers to determine their length and width and the mice were weighed. The tumor sizes were calculated using the formula (length×width^2)/2 and expressed as cubic millimeters (mm^3). Mice with tumors smaller than 85.3 mm^3 or larger than 417.4 mm^3 were excluded from the subsequent group formation. Thirteen groups of mice, 10 mice per group, were formed by randomization such that the group mean tumor sizes were essentially equivalent (mean of groups±standard deviation of groups=180.7±17.5 mm^3).
This formulation was prepared once for the duration of the study. This vehicle was used as the vehicle control in the subsequent study.
Each group was assigned to a different treatment regimen. Group 1, as the vehicle negative control group, received the vehicle administered at 8 mL/kg body weight intravenously (iv) three times per week from Days 18-39. […] Group 4 received 6.7 mg/kg SP249 as an iv injection three times per week. […] Group 9 received 30 mg/kg SP252 as an iv injection three times per week.
During the dosing period the mice were weighed and tumors measured 1-2 times per week.

MDM2 = MDM2 (Homo sapiens, UniProt Q00987); assay: Competitive fluorescence polarization assay for MDM2; assay type: binding
Protocol: Dilute 1 mM (in 100% DMSO) of FAM labeled linear peptide with DMSO to 100 μM (dilution 1:10). Then, dilute from 100 μM to 10 μM with water (dilution 1:10) and then dilute with FP buffer from 10 μM to 40 nM (dilution 1:250). This is the working solution which will be a 10 nM concentration in well (dilution 1:4). Keep the diluted FAM labeled peptide in the dark until use. • 4. […] Dilute 10 mM (in 100% DMSO) with DMSO to 5 mM (dilution 1:2). Then, dilute from 5 mM to 500 μM with H2O (dilution 1:10) and then dilute with FP buffer from 500 μM to 20 μM (dilution 1:25). […] Add 10 μl of 10 nM (4×) of FAM labeled peptide into each well and incubate for 3 hr to read.

[3] = 30 mg/kg iv three times per week

MDM2, sequence (Q00987 1-125): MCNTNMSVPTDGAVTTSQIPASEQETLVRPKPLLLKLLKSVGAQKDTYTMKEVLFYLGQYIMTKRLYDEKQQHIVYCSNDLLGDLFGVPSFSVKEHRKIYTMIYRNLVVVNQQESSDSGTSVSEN

Row | Compound | Molar Ellipticity 50% TFE (222 in 50% TFE) [1] | Molar Ellipticity Benign (222 in 0% TFE) [1] | Molar Ellipticity TFE − Molar Ellipticity Benign [1] | further results
1 | CCCC[C@H](NC(=O)[C@H](CCC(N)=O)NC(=O)[C@H](CCC(N)=O)NC(=O)[C@]1(C)CCCC=CCCCCCC[C@@](C)(NC(=O)[C@H](Cc2ccccc2)NC(C)=O)C(=O)N[C@@H](C)C(=O)N[C@@H](Cc2ccc(O)cc2)C(=O)N[C@@H](Cc2c[nH]c3ccccc23)C(=O)N[C@@H]([C@@H](C)O)C(=O)N[C@@H](C)C(=O)N[C@@H](CC(C)C)C(=O)N1)C(=O)N[C@@H](C(N)=O)C(C)C [compound 41] (Ac-F[R8]AYWTAL[S5]QQ[Nle][dV]-NH2; staple 2-9) | −21319.4 deg cm^2dmol^−1 | −909 deg cm^2dmol^−1 | 20410.4 deg cm^2dmol^−1 | –
2 | CC[C@H](C)[C@H](NC(=O)[C@H](C)NC(=O)[C@H](C)NC(=O)[C@]1(C)CCC/C=C/CCCCCC[C@@](C)(NC(=O)[C@H](Cc2ccccc2)NC(=O)[C@@H](NC(=O)[C@H](CC(C)C)NC(C)=O)[C@@H](C)O)C(=O)N[C@@H](C)C(=O)N[C@@H](Cc2ccc(O)cc2)C(=O)N[C@@H](Cc2c[nH]c3ccccc23)C(=O)N[C@@H](C)C(=O)N[C@@H](CCC(N)=O)C(=O)N[C@@H](CC(C)C)C(=O)N1)C(=O)N[C@H](C)C(N)=O [compound 71] | −17957 deg cm^2dmol^−1 | −121.2 deg cm^2dmol^−1 | −17835.9 deg cm^2dmol^−1 | –
3 | CC(=O)N[C@@H](CC(C)C)C(=O)N[C@H](C(=O)N[C@@H](C)C(=O)N[C@]1(C)CCCCCCC=CCCC[C@@](C)(C(=O)N[C@@H](CO)C(=O)N[C@@H](C)C(=O)N[C@@H](C)C(N)=O)NC(=O)[C@H](CC2CCC2)NC(=O)[C@H](CCC(N)=O)NC(=O)[C@H](C)NC(=O)[C@H](Cc2c[nH]c3ccccc23)NC(=O)[C@H](Cc2ccc(O)cc2)NC(=O)[C@H](CCC(=O)O)NC1=O)[C@@H](C)O [SP252] | – | – | – | body weight loss or deaths [2, 3]: no body weight loss or deaths noted
4 | CC(=O)N[C@@H](CC(C)C)C(=O)N[C@H](C(=O)N[C@@H](Cc1ccccc1)C(=O)N[C@]1(C)CCCCCCn2cc(nn2)CCC[C@@](C)(C(=O)N[C@@H](C)C(=O)N[C@@H](C)C(=O)N[C@@H](C)C(=O)N[C@@H](C)C(=O)N[C@@H](C)C(=O)N[C@H](C)C(N)=O)NC(=O)[C@H](CC(C)C)NC(=O)[C@H](CCC(N)=O)NC(=O)[C@H](C)NC(=O)[C@H](Cc2c[nH]c3ccccc23)NC(=O)[C@H](Cc2ccc(O)cc2)NC(=O)[C@H](C)NC1=O)[C@@H](C)O [SP450, Ac-LTF$4rn6AYWAQL$4a5AAAAAa-NH2] | – | – | – | Ki (MDM2): 100 to 1000 nM
5 | CC(=O)N[C@@H](CC(C)C)C(=O)N[C@H](C(=O)N[C@@H](Cc1ccccc1)C(=O)N[C@]1(C)CCCCCCC=CCCC[C@@](C)(C(=O)N[C@@H](CO)C(=O)N[C@@H](C)C(=O)N[C@@H](C)C(N)=O)NC(=O)[C@H](CC(C)C)NC(=O)[C@H](CCC(N)=O)NC(=O)[C@H](C)NC(=O)[C@H](Cc2c[nH]c3ccccc23)NC(=O)[C@H](Cc2ccc(O)cc2)NC(=O)[C@H](C)NC1=O)[C@@H](C)O [compound 11] (Ac-LTF[R8]AYWAQL[S5]SAA-NH2; staple 4-11) | −16623.4 deg cm^2dmol^−1 | −398.2 deg cm^2dmol^−1 | 16225.2 deg cm^2dmol^−1 | –
6 | CC(=O)N[C@@H](CC(C)C)C(=O)N[C@H](C(=O)N[C@@H](Cc1ccccc1)C(=O)N[C@]1(C)CCCCCCC=CCCC[C@@](C)(C(=O)N[C@@H](Cc2c[nH]cn2)C(=O)N[C@@H](Cc2c[nH]cn2)C(=O)N[C@@H](CC(C)C)C(=O)N[C@H](C)C(N)=O)NC(=O)[C@H](CC(C)C)NC(=O)[C@H](CCC(N)=O)NC(=O)[C@H](C)NC(=O)[C@H](Cc2c[nH]c3ccccc23)NC(=O)[C@H](Cc2ccc(O)cc2)NC(=O)[C@H](C)NC1=O)[C@@H](C)O [compound 43] (Ac-LTF[R8]AYWAQL[S5]HHL[dA]-NH2; staple 4-11) | −18247.4 deg cm^2dmol^−1 | −15334.5 deg cm^2dmol^−1 | 2912.9 deg cm^2dmol^−1 | –
7 | CC(=O)N[C@@H](CC(C)C)C(=O)N[C@H](C(=O)N[C@@H](Cc1ccccc1)C(=O)N[C@]1(C)CCCCCCn2cc(nn2)CCC[C@@](C)(C(=O)N[C@@H](C)C(=O)N[C@@H](C)C(=O)N[C@@H](C)C(=O)N[C@@H](C)C(=O)N[C@@H](C)C(=O)N[C@H](C)C(N)=O)NC(=O)[C@H](CC(C)C)NC(=O)[C@H](CCC(N)=O)NC(=O)[C@H](C)NC(=O)[C@H](Cc2c[nH]c3ccccc23)NC(=O)[C@H](Cc2ccc(O)cc2)NC(=O)[C@H](CCC(=O)O)NC1=O)[C@@H](C)O [SP451, Ac-LTF$4rn6EYWAQL$4a5AAAAAa-NH2] | – | – | – | Ki (MDM2): 10 to 100 nM
8 | CC(=O)N[C@@H](CC(C)C)C(=O)N[C@H](C(=O)N[C@@H](Cc1ccccc1)C(=O)N[C@]1(C)CCCCCCC=CCCC[C@@](C)(C(=O)N[C@@H](CO)C(=O)N[C@@H](C)C(=O)N[C@@H](Cc2ccccc2)C(N)=O)NC(=O)[C@H](CC(C)C)NC(=O)[C@H](CCC(N)=O)NC(=O)[C@H](C)NC(=O)[C@H](Cc2c[nH]c3ccccc23)NC(=O)[C@H](Cc2ccc(O)cc2)NC(=O)[C@H](C)NC1=O)[C@@H](C)O [compound 7] (Ac-LTF[R8]AYWAQL[S5]SAF-NH2; staple 4-11) | −19921.4 deg cm^2dmol^−1 | 124 deg cm^2dmol^−1 | −20045.4 deg cm^2dmol^−1 | –
9 | CC[C@H](C)[C@H](NC(=O)[C@H](C)NC(=O)[C@H](C)NC(=O)[C@]1(C)CCCC=CCCCCCC[C@@](C)(NC(=O)[C@H](Cc2ccccc2)NC(=O)[C@@H](NC(=O)[C@H](CC(C)C)NC(C)=O)[C@@H](C)O)C(=O)N[C@@H](CCC(=O)O)C(=O)N[C@@H](Cc2ccc(C(=O)O)cc2)C(=O)N[C@@H](Cc2c[nH]c3ccccc23)C(=O)N[C@@H](C)C(=O)N[C@@H](CCC(N)=O)C(=O)N[C@@H](CC2CCC2)C(=O)N1)C(=O)N[C@H](C)C(N)=O [SP249] (Ac-LTF[R8]E[Phe(4-COOH)]WAQ[Cba][S5]AAI[dA]-NH2; staple 4-11) | – | – | – | mice died during treatment ([2]; […] iv three times per week): 4 mice
10 | CCCC[C@H](NC(=O)[C@H](C)NC(=O)[C@H](C)NC(=O)[C@]1(C)CCC/C=C/CCCCCC[C@@](C)(NC(=O)[C@H](Cc2ccccc2)NC(=O)[C@@H](NC(=O)[C@H](CC(C)C)NC(C)=O)[C@@H](C)O)C(=O)N[C@@H](C)C(=O)N[C@@H](Cc2ccc(O)cc2)C(=O)N[C@@H](Cc2c[nH]c3ccccc23)C(=O)N[C@@H](C)C(=O)N[C@@H](CCC(N)=O)C(=O)N[C@@H](CC(C)C)C(=O)N1)C(=O)N[C@@H](C)C(N)=O [compound 69] | −21509.7 deg cm^2dmol^−1 | −102.6 deg cm^2dmol^−1 | – | –
11 | CC(=O)N[C@@H](CC(C)C)C(=O)N[C@H](C(=O)N[C@@H](Cc1ccccc1)C(=O)N[C@]1(C)CCCCCCC=CCCC[C@@](C)(C(=O)N[C@@H](C)C(=O)N[C@@H](C)C(=O)N[C@@H](C)C(=O)N[C@@H](C)C(=O)N[C@H](C)C(N)=O)NC(=O)[C@H](CC(C)C)NC(=O)[C@H](CCC(N)=O)NC(=O)[C@H](C)NC(=O)[C@H](Cc2c[nH]c3ccccc23)NC(=O)[C@H](Cc2ccc(O)cc2)NC(=O)[C@H](C)NC1=O)[C@@H](C)O [compound 233] | −19032.6 deg cm^2dmol^−1 | −477.9 deg cm^2dmol^−1 | −18554.7 deg cm^2dmol^−1 | –
12 | CC(=O)N[C@@H](CC(C)C)C(=O)N[C@H](C(=O)N[C@@H](Cc1ccccc1)C(=O)N[C@]1(C)CCCCCCC=CCCC[C@@](C)(C(=O)N[C@@H](C)C(=O)N[C@@H](C)C(=O)N[C@@H](C)C(=O)N[C@H](C)C(N)=O)NC(=O)[C@H](CC(C)C)NC(=O)[C@H](CCC(N)=O)NC(=O)[C@H](C)NC(=O)[C@H](Cc2c[nH]c3ccccc23)NC(=O)[C@H](Cc2ccc(O)cc2)NC(=O)[C@H](C)NC1=O)[C@@H](C)O (single isomer, unassigned) [compound 230] | −17974 deg cm^2dmol^−1 | −213.2 deg cm^2dmol^−1 | −17760.8 deg cm^2dmol^−1 | –
13 | CC(=O)N[C@@H](CC(C)C)C(=O)N[C@H](C(=O)N[C@@H](Cc1ccccc1)C(=O)N[C@]1(C)CCCCCCC=CCCC[C@@](C)(C(=O)N[C@@H](CO)C(=O)N[C@@H](C)C(=O)N[C@@H](C)C(N)=O)NC(=O)[C@H](CC2CCC2)NC(=O)[C@H](CCC(N)=O)NC(=O)[C@H](C)NC(=O)[C@H](Cc2c[nH]c3ccccc23)NC(=O)[C@H](Cc2ccc(O)cc2)NC(=O)[C@H](CCC(=O)O)NC1=O)[C@@H](C)O [SP154] | – | – | – | % BW Change ([2]; 30 mg/kg 3x/wk iv, mice): +5.7%; No. with ≧10% BW Loss ([2]; 30 mg/kg 3x/wk iv, mice): 0/10; No. with ≧20% BW Loss or death ([2]; 30 mg/kg 3x/wk iv, mice): 0/10; tolerability of dosing regimen [2, 3]: well-tolerated; No. with ≧10% BW Loss ([2]; 40 mg/kg 2x/wk iv, mice): 0/10; No. with ≧20% BW Loss or death ([2]; 40 mg/kg 2x/wk iv, mice): 2/10; tolerability of dosing regimen ([2]; 40 mg/kg iv twice a week): not tolerable; mice died during treatment ([2]; 40 mg/kg iv twice a week): 2 mice

Source: patent publication US20170349638A1, “COMPANION DIAGNOSTIC TOOL FOR PEPTIDOMIMETIC MACROCYCLES” (AILERON Therapeutics, Inc., priority 2016, published 2017)
